This is an account of results in PubChem BioAssay AID330 (DTP/NCI, 2004).

Where “and” joins values, the source holds several entries; their conditions need not be identical. Equal entries are not always repeated. Toxic doses and inconclusive results are not listed.

This test concerns P388 leukemia ip, CD2F1 mice, survival T/C. In words: NCI In Vivo Anticancer Drug Screen. Data for tumor model P388 Leukemia (intraperitoneal) in CD2F1 (CDF1) mice. The conditions noted are these: endpoint: median survival time, higher = longer survival. The method in brief:
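Mice carrying the transplanted tumor received test compound or vehicle. Survival was recorded in each group, and the value is the treated-group measurement divided by that of the vehicle-treated control group.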

[1] abbreviates: dose: 50.0 mg/kg/injection, schedule: Q01DX009 (ip), vehicle: Klucel (hydroxypropylcellulose) (HPC).
Where [2] appears, read: dose: 100.0 mg/kg/injection, schedule: Q01DX009 (ip), vehicle: Klucel (hydroxypropylcellulose) (HPC).
The mark [3] stands for this setting: dose: 200.0 mg/kg/injection, schedule: Q01DX009 (ip), vehicle: Klucel (hydroxypropylcellulose) (HPC).
Setting [4] is: dose: 50.0 mg/kg/injection, schedule: Q01DX005 (ip), vehicle: saline with Tween-80.
[5] abbreviates: dose: 100.0 mg/kg/injection, schedule: Q01DX005 (ip), vehicle: saline with Tween-80.
[6] abbreviates: dose: 200.0 mg/kg/injection, schedule: Q01DX005 (ip), vehicle: saline with Tween-80.
The mark [7] stands for this setting: dose: 6.25 mg/kg/injection, schedule: Q01DX005 (ip), vehicle: Klucel (hydroxypropylcellulose) (HPC).
Where [8] appears, read: dose: 12.5 mg/kg/injection, schedule: Q01DX005 (ip), vehicle: Klucel (hydroxypropylcellulose) (HPC).
The mark [9] stands for this setting: dose: 50.0 mg/kg/injection, schedule: Q01DX005 (ip), vehicle: Klucel (hydroxypropylcellulose) (HPC).
The mark [10] stands for this setting: dose: 100.0 mg/kg/injection, schedule: Q01DX005 (ip), vehicle: Klucel (hydroxypropylcellulose) (HPC).
The mark [11] stands for this setting: dose: 200.0 mg/kg/injection, schedule: Q01DX005 (ip), vehicle: Klucel (hydroxypropylcellulose) (HPC).
Setting [12] is: dose: 100.0 mg/kg/injection, schedule: Q01DX001 (ip), vehicle: saline with Tween-80.
The mark [13] stands for this setting: dose: 200.0 mg/kg/injection, schedule: Q01DX001 (ip), vehicle: saline with Tween-80.
Setting [14] is: dose: 50.0 mg/kg/injection, schedule: Q01DX009 (ip), vehicle: saline.
The mark [15] stands for this setting: dose: 100.0 mg/kg/injection, schedule: Q01DX009 (ip), vehicle: saline.
Where [16] appears, read: dose: 200.0 mg/kg/injection, schedule: Q01DX009 (ip), vehicle: saline.

As for `O=C(CCSCCCl)Nc1c(C(=O)O)cc([N+](=O)[O-])cc1[N+](=O)[O-]`, the T/C by setting is: (dose: 3.13 mg/kg/injection, schedule: Q04DX003 (ip), vehicle: DMSO) 94 % of control; (dose: 6.25 mg/kg/injection, schedule: Q04DX003 (ip), vehicle: DMSO) 100 % of control; (dose: 12.5 mg/kg/injection, schedule: Q04DX003 (ip), vehicle: DMSO) 102 % of control; (dose: 25.0 mg/kg/injection, schedule: Q04DX003 (ip), vehicle: DMSO) 111 % of control; (dose: 50.0 mg/kg/injection, schedule: Q04DX003 (ip), vehicle: DMSO) 102 % of control and 109 % of control; (dose: 100.0 mg/kg/injection, schedule: Q04DX003 (ip), vehicle: DMSO) 116 % of control.

Turning to `Nc1nc(N)c(N=O)c(Nc2ccc(Br)cc2)n1`, the T/C (dose: 100.0 mg/kg/injection, schedule: Q04DX003 (ip), vehicle: saline with Tween-80) was 91 % of control and the T/C (dose: 400.0 mg/kg/injection, schedule: Q04DX003 (ip), vehicle: saline with Tween-80) was 95 % of control.

On to `COc1ccc(Nc2ncc(C)n2-c2ccc(OC)cc2)cc1`, for which the T/C was 98 % of control (dose: 50.0 mg/kg/injection, schedule: Q01DX009 (ip), vehicle: saline with Tween-80); 98 % of control (dose: 100.0 mg/kg/injection, schedule: Q01DX009 (ip), vehicle: saline with Tween-80); 102 % of control (dose: 200.0 mg/kg/injection, schedule: Q01DX009 (ip), vehicle: saline with Tween-80).

`Cc1cc(Br)c(N)c(C(O)(C(F)(F)F)C(F)(F)F)c1`: the T/C was 91 % of control under setting [1], 97 % of control under setting [2] and 108 % of control under setting [3].

As for `CC1CC(=O)c2c(nn(C)c2COCc2ccccc2)C1` (stereo not given), the T/C runs as follows: (dose: 60.0 mg/kg/injection, schedule: Q01DX005 (ip), vehicle: saline with Tween-80) 102 % of control; (dose: 120.0 mg/kg/injection, schedule: Q01DX005 (ip), vehicle: saline with Tween-80) 91 % of control; (dose: 240.0 mg/kg/injection, schedule: Q01DX005 (ip), vehicle: saline with Tween-80) 96 % of control.

Consider `COc1ccc(C(=O)/C=C/c2ccc(OC)c(OC)c2OC)c(OC(C)=O)c1`, for which the T/C is 98 % of control (dose: 100.0 mg/kg/injection, schedule: Q04DX003 (ip), vehicle: Klucel (hydroxypropylcellulose) (HPC)); 91 % of control (dose: 200.0 mg/kg/injection, schedule: Q04DX003 (ip), vehicle: Klucel (hydroxypropylcellulose) (HPC)); 93 % of control (dose: 400.0 mg/kg/injection, schedule: Q04DX003 (ip), vehicle: Klucel (hydroxypropylcellulose) (HPC)).

Take `CCCCCCCCCCC(=O)N(C(C)CC(C)C)C1CC(C)CC(C)(C)C1` (stereo not given): the T/C is 104 % of control under setting [4], 100 % of control under setting [5] and 101 % of control under setting [6].

On to `O=C(O)CC1CC=CCC1CC(=O)O` (stereo not given), for which the T/C is 100 % of control (dose: 100.0 mg/kg/injection, schedule: Q01DX001 (ip), vehicle: saline sonified); 100 % of control (dose: 200.0 mg/kg/injection, schedule: Q01DX001 (ip), vehicle: saline sonified); 105 % of control (dose: 400.0 mg/kg/injection, schedule: Q01DX001 (ip), vehicle: saline sonified).

`O=C1/C(=C/c2cccc(F)c2)SC(=S)N1C1CC1`: the T/C runs as follows: under setting [7], 96 % of control; under setting [8], 96 % of control; (dose: 25.0 mg/kg/injection, schedule: Q01DX005 (ip), vehicle: Klucel (hydroxypropylcellulose) (HPC)) 99 % of control; under setting [9], 94 % of control; under setting [10], 92 % of control; under setting [11], 87 % of control.

`Nc1ccccc1C(=O)Nc1ccc(Cl)cc1Cl`: the T/C under setting [4] is 104 % of control, the T/C under setting [5] was 92 % of control and the T/C under setting [6] is 92 % of control.

Consider `O=C(Cn1c(=O)cc(Nc2ccccc2)c2ccccc21)Nc1ccccc1`, for which the T/C by setting is: under setting [12], 94 % of control; under setting [13], 94 % of control; (dose: 400.0 mg/kg/injection, schedule: Q01DX001 (ip), vehicle: saline with Tween-80) 94 % of control.

For `COC(=O)CC(CCCCCCCCCCCCC(C)C)OC(C)=O` (stereo not given), the T/C by setting is: (dose: 8.13 mg/kg/injection, schedule: Q01DX005 (ip), vehicle: Klucel (hydroxypropylcellulose) (HPC)) 94 % of control; (dose: 16.25 mg/kg/injection, schedule: Q01DX005 (ip), vehicle: Klucel (hydroxypropylcellulose) (HPC)) 96 % of control; (dose: 32.5 mg/kg/injection, schedule: Q01DX005 (ip), vehicle: Klucel (hydroxypropylcellulose) (HPC)) 99 % of control; (dose: 65.0 mg/kg/injection, schedule: Q01DX005 (ip), vehicle: Klucel (hydroxypropylcellulose) (HPC)) 112 % of control.

Take `CN(C)N1C(=O)c2ccccc2NC1c1ccccc1` (stereo not given): the T/C is 87 % of control under setting [9], 96 % of control under setting [10] and 94 % of control under setting [11].

On to `O=c1cc(CCc2ccccc2)c2ccccc2[nH]1`, for which the T/C is 94 % of control (dose: 100.0 mg/kg/injection, schedule: Q04DX002 (ip), vehicle: saline with Tween-80); 94 % of control (dose: 200.0 mg/kg/injection, schedule: Q04DX002 (ip), vehicle: saline with Tween-80); 95 % of control (dose: 400.0 mg/kg/injection, schedule: Q04DX002 (ip), vehicle: saline with Tween-80).

Turning to `CN(CCN(C)C(=O)CCOS(C)(=O)=O)C(=O)CCOS(C)(=O)=O`, the T/C is 151 % of control (dose: 12.5 mg/kg/injection, schedule: Q01DX009 (ip), vehicle: saline); 175 % of control (dose: 25.0 mg/kg/injection, schedule: Q01DX009 (ip), vehicle: saline); 192 % of control and 210 % of control under setting [14]; 260 % of control and 290 % of control under setting [15]; 116 % of control and 297 % of control under setting [16].

For `CN(C(=S=O)c1ccccc1)c1ccccc1`, the T/C reads like this: under setting [14], 109 % of control; under setting [15], 104 % of control; under setting [16], 106 % of control.

For `C[CH2][Sn]([O][Sn]([Cl])([CH2]C)[c]1ccccc1)[c]1ccccc1` (stereo not given), the T/C was 118 % of control (dose: 3.12 mg/kg/injection, schedule: Q01DX005 (ip), vehicle: Klucel (hydroxypropylcellulose) (HPC)); 101 % of control under setting [7]; 101 % of control under setting [8].

As to `C=C(C)C(=O)OC1CC2=CC(CC3(C)OC3C3OC(=O)C(=C)C13)OC2=O` (stereo not given), the T/C was 100 % of control (dose: 2.25 mg/kg/injection, schedule: Q01DX009 (ip), vehicle: Klucel (hydroxypropylcellulose) (HPC)); 103 % of control (dose: 2.3 mg/kg/injection, schedule: Q01DX009 (ip), vehicle: Klucel (hydroxypropylcellulose) (HPC)); 100 % of control and 97 % of control (dose: 4.5 mg/kg/injection, schedule: Q01DX009 (ip), vehicle: Klucel (hydroxypropylcellulose) (HPC)); 100 % of control and 111 % of control (dose: 9.0 mg/kg/injection, schedule: Q01DX009 (ip), vehicle: Klucel (hydroxypropylcellulose) (HPC)); 114 % of control and 115 % of control (dose: 18.0 mg/kg/injection, schedule: Q01DX009 (ip), vehicle: Klucel (hydroxypropylcellulose) (HPC)).

As for `CC(NC(=O)C(Cc1cnc[nH]1)NC(=O)OCc1ccccc1)C(=O)O` (stereo not given), the T/C runs as follows: under setting [9], 96 % of control; under setting [10], 96 % of control; under setting [11], 96 % of control.

Turning to `Cc1ccc(C(=O)NNC(=O)Nc2cccc(Cl)c2C)cc1`, the T/C is, setting by setting: under setting [1], 92 % of control; under setting [2], 89 % of control; under setting [3], 93 % of control.

Consider `NNC(=O)C(O)C(O)C(O)C(O)CO` (stereo not given), for which the T/C is, setting by setting: (dose: 50.0 mg/kg/injection, schedule: Q01DX005 (ip), vehicle: saline) 92 % of control; (dose: 100.0 mg/kg/injection, schedule: Q01DX005 (ip), vehicle: saline) 100 % of control; (dose: 200.0 mg/kg/injection, schedule: Q01DX005 (ip), vehicle: saline) 100 % of control.

`O=C1CCC2(c3ccccc3)CCCN=C2N1` (stereo not given): the T/C is 104 % of control under setting [12] and 99 % of control under setting [13].
